Tested on: CT26 cells
Experiment: Synergistic anticancer effect of refined product and 5-FU on colon carcinoma cells
Type: in vivo, mouse
Conditions: BALB/c mice with subcutaneous CT26, end of 3rd week, treatments per Table 8, mean ± S.D.
Source text: The male BALB/c mice were randomly divided into the following groups (n=8 for each group): a normal control group, a pathological control group, a 5-FU group, and a synergy group. 1×10^6 CT26 cells were subcutaneously injected into the leg of each mouse in the pathological control group, the 5-FU group, and the synergy group. The mice in the normal control group received no CT26 cells.
After the injection of CT26 cells, the mice in the 5-FU group, the synergy group, and the pathological control group were subjected to the treatments shown in Table 8 until the end of the 3rd week after the injection of CT26 cells. The mice in the normal control group received no treatment.
At the end of the 3rd week after the injection of CT26 cells, the mice in each group were anesthetized using CO2, and blood was collected from the celiac vein. The blood collected was subjected to total white blood cell counting using an automated hematology analyzer (Sysmex, KX-21 N). Besides, tumors were collected and weighted.

`O=c1[nH]cc(F)c(=O)[nH]1` [5-FU, 5-fluorouracil] was tested, and the Tumor weight (pathological control 4.10 ± 0.92) was 3.19 ± 1.47 and the “Number of total white blood cells” value (pathological control 6.59 ± 1.46) was 4.46 ± 0.77.
